Data set [1] in a line: Solubility. Type of data set: physicochemical. Conditions: for Solubility at pH 7.4 relative to the parent compound, suggested/assumed from pH 4.0 data: pH 7.4, not measured directly.
Data set [2] can be described thus: Stability in solution. Conditions: pH 7.4, 24 hours. The class given is physicochemical.
Data set [3] deals with NMDA receptor subtype. As to conditions: known from WO 00/75109; cited from earlier work.
Where [4] appears, read: pH 4, aqueous buffer, read-out: Solubility (μg/ml at pH 4).
Where [5] appears, read: pH 7, aqueous buffer, read-out: Solubility (μg/ml at pH 7).

In brackets after ≈: the same amount, converted by molar mass. Like-named read-outs stand apart in the source and are kept apart here.

Turning to `O=C(O)CCC(=O)Oc1ccc(S(=O)(=O)CCN2CC[C@H](Cc3ccccc3)[C@H](O)C2)cc1` [Example 1, Succinic Acid Mono-{(3S,4S)-4-[2-(4-benzyl-3-hydroxy-piperidin-1-yl)-ethanesulfonyl]-phenyl}ester], the solubility in data set [1] (setting [4]) was determined as 1800 µg/mL (≈ 3.78 mM); in data set [1] (setting [5]), 7690 µg/mL (≈ 16.2 mM).

As to `CNCc1cccc(C(=O)Oc2ccc(S(=O)(=O)CCN3CC[C@H](Cc4ccccc4)[C@H](O)C3)cc2)c1` [Example 9, 3-Methylaminomethyl-benzoic Acid (3S,4S)-4-[2-(4-benzyl-3-hydroxy-piperidin-1-yl)-ethanesulfonyl]-phenyl Ester], the solubility in data set [1] (setting [4]) was determined as 86600 µg/mL (≈ 166 mM). Moreover, in data set [1], the “Solubility at pH 7.4 relative to the parent compound, suggested/assumed from pH 4.0 data” value is “higher solubility”. For the same compound, the “Stability at pH 7.4 over 24 hours” value in data set [2] was “unstable”.

Consider `O=C(Oc1ccc(S(=O)(=O)CCN2CC[C@H](Cc3ccccc3)[C@H](O)C2)cc1)c1cccc(CN2CCOCC2)c1` [Example 6, 3-Morpholin-4-ylmethyl-benzoic Acid (3S,4S)-4-[2-(4-benzyl-3-hydroxy-piperidin-1-yl)-ethanesulfonyl]-phenyl Ester], for which the values for the solubility in data set [1] (setting [4]) and in data set [1] (setting [5]) were 8500 µg/mL (≈ 14.7 mM) and 89 µg/mL (≈ 0.154 mM), respectively.

`O=P(O)(O)Oc1ccc(S(=O)(=O)CCN2CC[C@H](Cc3ccccc3)[C@H](O)C2)cc1` [Example 2, Phosphoric Acid Mono-{(3S,4S)-4-[2-(4-benzyl-3-hydroxy-piperidin-1-yl)-ethanesulfonyl]-phenyl}ester]: the solubility in data set [1] (setting [4]) was 594 µg/mL (≈ 1.3 mM); in data set [1] (setting [5]) it was above 37600 µg/mL.

On to `O=S(=O)(CCN1CC[C@H](Cc2ccccc2)[C@H](O)C1)c1ccc(O)cc1` [Compound of formula II, (3S,4S)-4-[2-(4-benzyl-3-hydroxy-piperidin-1-yl)-ethanesulfonyl]-phenol, reference compound], for which the solubility in data set [1] (aqueous buffer, pH 4.8 (printed in the cell of the pH 4 column), read-out: Solubility (μg/ml) at pH 4.8) is 7750 µg/mL; in data set [1] (setting [5]), 47 µg/mL. Further, in data set [1] (physiological pH), the “Water solubility at physiological pH” value is on record as “limited water solubility”. The “NMDA receptor subtype specific blocker” value in data set [3] is “good NMDA receptor subtype specific blocker”.

In the case of `NCc1ccc(C(=O)Oc2ccc(S(=O)(=O)CCN3CC[C@H](Cc4ccccc4)[C@H](O)C3)cc2)cc1` [Example 7, 4-Aminomethyl-benzoic Acid (3S,4S)-4-[2-(4-benzyl-3-hydroxy-piperidin-1-yl)-ethanesulfonyl]-phenyl Ester], the solubility in data set [1] (setting [4]) was 6710 µg/mL (≈ 13.2 mM). For the same compound, the “Solubility at pH 7.4 relative to the parent compound, suggested/assumed from pH 4.0 data” value in data set [1] is “higher solubility can be assumed”. Further, the “Stability at pH 7.4 over 24 hours” value in data set [2] is “unstable”.

In the case of `CNCc1ccc(C(=O)Oc2ccc(S(=O)(=O)CCN3CC[C@H](Cc4ccccc4)[C@H](O)C3)cc2)cc1` [Example 10, 4-Methylaminomethyl-benzoic Acid (3S,4S)-4-[2-(4-benzyl-3-hydroxy-piperidin-1-yl)-ethanesulfonyl]-phenyl Ester], the solubility in data set [1] (setting [4]) was found to be 26100 µg/mL (≈ 49.9 mM). Moreover, the “Solubility at pH 7.4 relative to the parent compound, suggested/assumed from pH 4.0 data” value in data set [1] was “higher solubility”. In data set [2], the “Stability at pH 7.4 over 24 hours” value was “unstable”.

The record behind these values is patent publication US6407235B1, “Prodrug acid esters of [2-(4-benzyl-3-hydroxy-piperidin-1-yl)-ethansulfonyl]phenol” (Hoffmann-La Roche Inc., priority 2001, dated 2002).
